Data on four molecules can be found in US6521620B1, “Bicyclic compounds capable of inhibiting tyrosine kinases of the epidermal growth factor receptor family” (Warner-Lambert Company, priority 1994, dated 2003).

A word on the IC50: it is the concentration that inhibits the measured activity by half.

Each structure is given as a SMILES string. Like-named read-outs stand apart in the source and are kept apart here.

Assay [1] addresses T1, Human EGF receptor tyrosine kinase (Homo sapiens, UniProt P00533).
T1 construct: isolated from A431 human epidermoid carcinoma cells which overexpress EGF receptor; endogenous in cells; host or cells: A431 human epidermoid carcinoma cells; purified from the lysate on wheat germ agglutinin sepharose
The assay can be described thus: EGF receptor tyrosine kinase inhibition (phosphorylation of PLC-gamma 1 derived peptide). Type of assay: biochemical. Here is the method: Purification of Epidermal Growth Factor Receptor Tyrosine Kinase—Human EGF receptor tyrosine kinase was isolated from A431 human epidermoid carcinoma cells which overexpress EGF receptor by the following methods. Cells were grown in roller bottles in 50% Delbuco's Modified Eagle and 50% HAM F-12 nutrient media (Gibco) containing 10% fetal calf serum. Approximately 10^9 cells were lysed in two volumes of buffer containing 20 mM 2-(4N-[2-hydroxyethyl]piperazin-1-yl)ethanesulfonic acid (hepes), pH 7.4, 5 mM ethylene glycol bis(2-aminoethyl ether) N,N,N′,N′-tetraacetic acid, 1% Triton X-100, 10% glycerol, 0.1 mM sodium orthovanadate, 5 mM sodium fluoride, 4 mM pyrophosphate, 4 mM benzamide, 1 mM dithiothreitol, 80 μg/mL aprotinin, 40 μg/mL leupeptin and 1 mM phenylmethylsulfonyl fluoride. After centrifugation at 25,000×g for 10 minutes, the supernatant was equilibrated for 2 h at 4° C. with 10 mL of wheat germ agglutinin sepharose that was previously equilibrated with 50 mM Hepes, […], 0.1% Triton X-100 and 150 mM NaCl, pH 7.5, (equilibration buffer). Contaminating proteins were washed from the resin with 1 M NaCl in equilibration buffer, and the enzyme was eluted with 0.5 M N-acetyl-1-D-glucosamine in equilibration buffer, followed by 1 mM urea. The enzyme was eluted with 0.1 mg/ml EGF.
The reaction was terminated by the addition of 2 mL of […] phosphoric acid and passed through a 2.5 cm phosphocellulose filter disc to bind the peptide. The filter was washed five times with 75 mM phosphoric acid and placed in a vial along with 5 mL of scintillation fluid (Ready gel Beckman).

The next assay addresses T2, EGF receptor (Homo sapiens, UniProt P00533).
T2 construct: EGF receptor autophosphorylation in A431 human epidermoid carcinoma; endogenous in cells; host or cells: A431 human epidermoid carcinoma cells (ATCC)
The assay can be described thus: Inhibition of EGF-induced autophosphorylation in A431 epidermoid carcinoma cells. It is filed as cell-based. As to the method: (§1) Cells were grown to 100% confluency in 100 mm Petrie dishes (Corning). After the cells were treated for 5 minutes with either EGF (epidermal growth factor), PDGF, or bFGF (basic fibroblast growth factor) (20 ng/ml) or 1 ml of conditioned media from MDA-MB-231 cells, the media was removed and the monolayer scraped into 1 ml of ice cold lysis buffer (50 mM Hepes, pH 7.5, 150 mM NaCl, 10% glycerol, 1% triton X-100, 1 mM EDTA, 1 mM EGTA, 10 mM sodium pyrophosphate, 30 mM p-nitrophenyl phosphate, 1 mM orthovanadate, 50 mM sodium fluoride, 1 mM phenylmethylsulfonylfluoride, 10 μg/ml of aprotinin, and 10 μg/ml of leupeptin). The lysate was transferred to a microfuge tube (small centrifuge that holds 1-2 ml plastic centrifuge tubes), allowed to sit on ice 15 minutes and centrifuged 5 minutes at 10,000×g. The supernatant was transferred to a clean microfuge tube and 5 μg of antibody was added to designated samples. The tubes were rotated for 2 hours at […] after which 25 μl of protein A sepharose was added and then rotation continued for at least 2 more hours. The protein A separose was washed 5 times with 50 mM Hepes, pH 7.5, 150 mM NaCl, 10% glycerol and 0.02% sodium azide. […] The extract were transferred to a microfuge tube and heated to 100° C. for 5 minutes. […] Proteins in the gel were electrophoretically transferred to nitrocellulose and the membrane was washed once in 10 mM Tris buffer, pH 7.2, 150 mM NaCl, 0.01% Azide (TNA) and blocked overnight in TNA containing 5% bovine serum albumin and 1% ovalbumin (blocking buffer). The membrane was blotted for 2 hours with the primary antibody (1 μg/ml in blocking buffer) and then washed 2 times sequentially in TNA, TNA containing 0.05% Tween-20 and 0.05% Nonidet P-40 (commercially available detergent) and TNA.

In another assay the test system is erbB-2, 3, 4. The assay can be described thus: Inhibition of conditioned media-induced autophosphorylation in SK-BR-3 breast tumor cells. Type of assay: cell-based, human. Here is the method:
as §1

In assay [2] the test system is NIH 3T3 mouse fibroblast line, transfected with the human EGFR gene. The assay can be described thus: Morphology of EGF-treated NIH 3T3 fibroblasts transfected with the human EGFR gene. It is filed as cell-based. The note with it: 100 ng/mL of EGF and 5 μm of compound (FIG. 17). Here is the method:
FIG. 15 is a photograph of an NIH 3T3 mouse fibroblast line, transfected with the human EGFR gene showing a normal flattened morphology;
FIG. 16 is a photograph of the same cell line treated with 100 ng/mL of EGF showing a typical spindly transformed morphology; and […]

For the next assay, the system named is c-jun mRNA. The experiment in a line: Growth factor dependent expression of c-jun mRNA in Swiss 3T3 (Northern blot). Type of assay: cell-based, mouse. The note with it: Swiss 3T3 cells, EGF-stimulated (FIG. 7). Here is the method:
Total cellular RNA was isolated from untreated control or treated Swiss 3T3 cells using RNAzol-B (trademark of Tel Test Inc. for a kit used to isolate RNA from tissues) and adhered to the protocol described by the manufacturer. Forty to fifty μg of RNA was loaded onto a 1% agarose gel and electrophoresis carried out for 3-4 hours at 65 volts. The RNA in the gel was transferred by capillary action to a nylon membrane (Hybond-N, Amersham). The 40 mer c-jun probe was end labeled with [^32p]ATP using […] (Promega) and purified on a G25 sephadex column according to the procedure recommended by the supplier, Oncogene Science. Hybridization was performed overnight at 65° C. (c-jun is an immediate early transcription factor; it is one of the components of AP-1 while FOS is the second component of AP-1.
Gel of Example 40 (FIG. 7) detects mRNA-for c-jun by hybridization with a specific radiolabelled RNA probe for c-jun.

For another assay, the system named is p39^c-jun. The assay can be described thus: Growth factor mediated expression of p39 c-jun in Swiss 3T3 (Western blot). It is filed as cell-based, mouse. As to the method:
Monoclonal antibodies raised to the PDGF ([…]) receptor or phosphotyrosine were from Upstate Biotechnology, Inc., Lake Placid, N.Y. Anti-pp39^jun (antibody to the transcription factor c-jun, which is a 39 kDalton phosphoprotein) and anti-EGF receptor antibodies were from Oncogene Science, Uniondale, N.Y.
Cells were grown to 100% confluency in 100 mm Petrie dishes (Corning). After the cells were treated for 5 minutes with either EGF (epidermal growth factor), PDGF, or bFGF (basic fibroblast growth factor) (20 ng/ml) or 1 ml of conditioned media from MDA-MB-231 cells, the media was removed and the monolayer scraped into 1 ml of ice cold lysis buffer (50 mM Hepes, pH 7.5, 150 mM NaCl, 10% glycerol, 1% triton X-100, 1 mM EDTA, 1 mM EGTA, 10 mM sodium pyrophosphate, 30 mM p-nitrophenyl phosphate, 1 mM orthovanadate, 50 mM sodium fluoride, 1 mM phenylmethylsulfonylfluoride, 10 μg/ml of aprotinin, and 10 μg/ml of leupeptin). The lysate was transferred to a microfuge tube (small centrifuge that holds 1-2 ml plastic centrifuge tubes), allowed to sit on ice 15 minutes and centrifuged 5 minutes at 10,000×g. The supernatant was transferred to a clean microfuge tube and 5 μg of antibody was added to designated samples. The tubes were rotated for 2 hours at […] after which 25 μl of protein A sepharose was added and then rotation continued for at least 2 more hours. The protein A separose was washed 5 times with 50 mM Hepes, pH 7.5, 150 mM NaCl, 10% glycerol and 0.02% sodium azide. The precipitates were resuspended with 30 μl of Laemlli buffer (Laemmli, […], pp. 680-685, 1970), heated to 100° C. for 5 minutes and centrifuged to obtain the supernatant. Whole cell extracts were made by scraping cells grown in the wells of 6 well plates into 0.2 ml of boiling Laemmli buffer. The extract were transferred to a microfuge tube and heated to 100° C. for 5 minutes. […]
Background: Immunoblotting shows a protein as a band on a membrane.

The test system of assay [3] is B104-1-1 - NIH-3T3 fibroblasts transfected by the neu oncogene. The experiment in a line: Growth inhibition assay (antiproliferative), B104-1-1. The note with it: Mus musculus; B104-1-1 cells. It is filed as cell-based.
The test system of assay [4] is SK-BR-3 - Human breast carcinoma overexpressing erbB-2 and erbB-3. The experiment in a line: Growth inhibition assay (antiproliferative), SK-BR-3. It is filed as cell-based. Conditions: SK-BR-3 cells.
In assay [5] the test system is MDA-468 - Human breast carcinoma overexpressing the EGF receptor. The experiment in a line: cells. The note with it: read-out: Antiproliferative IC50 (nM). As to the method:
To obtain conditioned medium, MDA-MB-231 cells were grown to confluency in an 850 cm^2 roller bottle and the medium-replaced with 50 ml of serum-free medium. After 3 days the conditioned medium was removed, frozen down in aliquots and used as a heregulin source to stimulate erbB-2, 3, 4.
Cells (2×10^4) were seeded in 24-well plates (1.7×1.6 cm, flat bottom) in two mls of medium with or without various concentrations of drug. Plates were incubated for 3 days at 37° in a humidified atmosphere containing 5% CO2 in air. Cell growth was determined by cell count with a Coulter Model AM electronic cell counter (Coulter Electronics, Inc., Hialeah, Fla.).

Setting [6] is: Table 1, values in nM, read-out: EGF Receptor Tyrosine Kinase Inhibition IC50.
Setting [7] is: enzyme value repeated in the autophosphorylation table, read-out: EGFR IC50.
[8] abbreviates: SK-BR-3 cells, read-out: SKBR-3 IC50.
The mark [9] stands for this setting: Table 1, values in pM, read-out: EGF Receptor Tyrosine Kinase Inhibition IC50.

T1 sequence (P00533 25-1210): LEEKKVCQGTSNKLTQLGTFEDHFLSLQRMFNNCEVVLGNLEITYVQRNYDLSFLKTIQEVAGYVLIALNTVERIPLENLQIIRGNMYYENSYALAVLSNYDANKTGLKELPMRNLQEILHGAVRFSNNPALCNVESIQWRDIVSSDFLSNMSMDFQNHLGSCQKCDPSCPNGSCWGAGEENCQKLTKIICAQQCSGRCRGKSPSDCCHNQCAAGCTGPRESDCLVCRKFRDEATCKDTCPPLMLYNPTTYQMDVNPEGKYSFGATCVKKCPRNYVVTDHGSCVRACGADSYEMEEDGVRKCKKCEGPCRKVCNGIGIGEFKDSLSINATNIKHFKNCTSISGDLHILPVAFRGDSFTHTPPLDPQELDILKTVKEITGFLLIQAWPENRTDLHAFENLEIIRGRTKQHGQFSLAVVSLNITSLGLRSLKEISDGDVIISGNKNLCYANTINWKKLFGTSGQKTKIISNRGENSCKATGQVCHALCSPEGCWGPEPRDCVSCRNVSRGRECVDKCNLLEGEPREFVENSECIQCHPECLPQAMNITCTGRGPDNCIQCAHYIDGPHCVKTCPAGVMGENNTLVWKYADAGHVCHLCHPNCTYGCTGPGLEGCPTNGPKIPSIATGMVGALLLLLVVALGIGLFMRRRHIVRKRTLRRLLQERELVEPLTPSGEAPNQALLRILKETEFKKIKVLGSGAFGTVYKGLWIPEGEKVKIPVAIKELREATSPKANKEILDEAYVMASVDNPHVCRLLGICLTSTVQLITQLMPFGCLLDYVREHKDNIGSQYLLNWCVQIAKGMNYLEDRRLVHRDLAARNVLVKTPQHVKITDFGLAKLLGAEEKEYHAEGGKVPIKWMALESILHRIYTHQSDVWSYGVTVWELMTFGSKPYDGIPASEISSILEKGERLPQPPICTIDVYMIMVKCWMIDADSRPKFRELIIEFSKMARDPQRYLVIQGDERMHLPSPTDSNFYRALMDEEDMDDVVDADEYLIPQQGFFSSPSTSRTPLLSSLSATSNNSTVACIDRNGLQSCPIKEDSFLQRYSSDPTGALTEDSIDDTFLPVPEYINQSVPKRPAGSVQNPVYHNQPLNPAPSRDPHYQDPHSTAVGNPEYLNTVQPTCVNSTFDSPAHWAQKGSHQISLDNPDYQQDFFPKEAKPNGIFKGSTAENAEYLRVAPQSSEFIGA
T2 sequence (P00533 25-1210): as above

On to `Nc1cc2ncnc(Nc3cccc(Br)c3)c2cn1` [Example 27, 7-Amino-4-(3-bromoanilino)pyrido[4,3-d]pyrimidine], for which the 50% inhibitory concentration (IC50) in assay [1] (setting [6]) was 10 nM; in assay [1] (setting [7]) it was 10 nM; against EGF receptor, 110 nM; with erbB-2, 3, 4 (setting [8]) it was approximately 800 nM. Also, the cell morphology entry in [2] was “morphology reverted from the transformed type back to the normal type”.

On to `Nc1cc2ncnc(NCc3ccccc3)c2cn1` [Example 40, 7-Amino-4-benzylaminopyrido[4 3-d]pyrimidine], for which, in assay [1] (setting [6]), the IC50 is 578 nM. Moreover, in the assay on c-jun mRNA, the “c-jun mRNA production” value was “blocks this production for EGF-stimulated cells”. Moreover, the “c-jun expression (p39 c-jun protein)” value in the assay on p39^c-jun (Swiss 3T3, stimulated by EGF (FIG. 8)) is on record as “block c-jun expression”; with p39^c-jun (Swiss 3T3, stimulated by PDGF (FIG. 8)) it was “not when stimulated by PDGF or b-FGF”; in the assay on p39^c-jun (Swiss 3T3, stimulated by b-FGF (FIG. 8)), “not when stimulated by PDGF or b-FGF”.

`CNc1cc2c(Nc3cccc(Br)c3)ncnc2cn1` [Example 60, 4-(3-Bromoanilino)-6-methylaminopyrido[3,4-d]pyrimidine]: the IC50 in assay [1] (setting [9]) is 0.008 nM; in assay [1] (setting [7]) it was 0.008 nM; against EGF receptor, 13 nM; with erbB-2, 3, 4 (setting [8]), less than 10 nM; in assay [3] it was 2100 nM; in [4], 600 nM. Moreover, the IC50 in [5] was 3000 nM.

`CN(C)c1cc2c(Nc3cccc(Br)c3)ncnc2cn1` [Example 61, 4-(3-Bromoanilino)-6-dimethylaminopyrido[3,4-d]pyrimidine]: the IC50 in assay [1] (setting [9]) was found to be 0.006 nM; in [1] (setting [7]), 0.006 nM; at EGF receptor, 21 nM; with erbB-2, 3, 4 (read-out: SKBR-3 IC50 nM, SK-BR-3 cells), 39 nM; in assay [3] it was 1000 nM; in [4], 900 nM. Moreover, in [5], the half-inhibitory concentration (IC50) came to 12000 nM.
